Positions count from the first letter of the chain named.
What was measured:
[1] = molecular target: T1, Ba/F3 cell lines stably expressing human FLT3-ITD (Homo sapiens, UniProt P36888, cells depend on it, form not given); assay: FLT3 mutant assay, cell viability, Ba/F3-FLT3-ITD; type: cell-based, mouse; settings: IC50 (3 days), CellTiter-Glo; read-out: Ba/F3-FLT3-ITD Relative IC50
T1 sequence (P36888 1-993): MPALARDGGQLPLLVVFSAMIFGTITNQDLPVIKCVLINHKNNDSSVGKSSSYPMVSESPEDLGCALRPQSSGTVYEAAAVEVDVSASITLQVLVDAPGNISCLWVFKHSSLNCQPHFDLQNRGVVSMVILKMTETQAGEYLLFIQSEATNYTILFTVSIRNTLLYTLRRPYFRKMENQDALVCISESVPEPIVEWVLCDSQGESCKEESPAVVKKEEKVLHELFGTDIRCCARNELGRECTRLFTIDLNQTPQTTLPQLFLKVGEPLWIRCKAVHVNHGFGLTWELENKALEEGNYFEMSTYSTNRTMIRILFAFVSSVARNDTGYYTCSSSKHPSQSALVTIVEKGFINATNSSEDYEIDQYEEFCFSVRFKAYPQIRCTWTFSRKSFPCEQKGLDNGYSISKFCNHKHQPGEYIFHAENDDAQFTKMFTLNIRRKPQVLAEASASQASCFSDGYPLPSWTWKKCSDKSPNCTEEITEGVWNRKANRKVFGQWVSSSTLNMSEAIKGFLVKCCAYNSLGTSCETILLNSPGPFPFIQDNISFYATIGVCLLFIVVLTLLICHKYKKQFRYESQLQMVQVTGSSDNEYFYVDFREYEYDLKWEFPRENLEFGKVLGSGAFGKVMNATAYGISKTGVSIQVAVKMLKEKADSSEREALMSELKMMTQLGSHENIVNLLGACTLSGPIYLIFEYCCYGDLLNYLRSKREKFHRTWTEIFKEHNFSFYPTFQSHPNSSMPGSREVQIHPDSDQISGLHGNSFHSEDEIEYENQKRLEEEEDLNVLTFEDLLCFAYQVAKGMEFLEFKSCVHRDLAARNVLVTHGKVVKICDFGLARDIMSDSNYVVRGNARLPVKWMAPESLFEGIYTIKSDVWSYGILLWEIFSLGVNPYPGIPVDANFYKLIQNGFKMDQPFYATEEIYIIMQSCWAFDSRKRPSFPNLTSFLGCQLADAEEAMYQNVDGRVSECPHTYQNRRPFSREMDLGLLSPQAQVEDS
Experimental: (§1) Activity of compounds on FLT3 activating mutations were assessed using Ba/F3 cell lines (mouse pro-B cell line) stably expressing human FLT3-ITD, FLT3-ITD-D835Y or FLT3-ITD-F691L. […] The supernatant collected were concentrated with PEG8000 and used to infect Ba/F3 cells at 1-5 MOI in serum-free media with polybrene. Infected Ba/F3 cells were selected in presence of puromycin, and surviving cells verified by sequencing and/or protein detection assay. Constitutive expression of the activating kinase transforms the Ba/F3 cells into IL-3-independent growth allowing them to be cultured in the absence of IL-3. […] For use in compound testing, cells in exponential growth phase were harvested, counted, and resuspended at the required cell density. Cell viability assays were performed in 96-well assay plates and 90 μL of cell suspension seeded per well. Serial dilutions of the test compounds and assay controls and were freshly prepared for the assay. Nine-point 3× serial dilutions were prepared in 100% DMSO (400× stock) and subsequently diluted in cell culture media to obtain 10× stocks. Ten microliters of the 10× stock serial dilutions were added to the appropriate wells (triplicate wells per condition) in the assay plate. […] Assay plates were incubated for 3 days in at 37° C. in a humidified incubator with 5% CO2.
(§2) Inhibition rate (IR) of the tested compounds was determined by the following formula: IR (%)=(1−(RLU compound−RLU blank)/(RLU control−RLU blank))*100%. The inhibitions of different dose of compound were calculated in Excel file, and the dose responses were analysed using GraphPad Prism to evaluate related parameters, such as Bottom, Top and IC50. For the IC50 analysis by GraphPad Prism, the equation below was used to fit curve: Y=Bottom+(Top−Bottom)/(1+10^((LogIC50−X)*HillSlope))

[2] = molecular target: T2, Ba/F3 cell lines stably expressing human FLT3-ITD-D835Y (Homo sapiens, UniProt P36888, D835Y, cells depend on it, form not given); assay: FLT3 mutant assay, cell viability, Ba/F3-FLT3-ITD-D835Y; type: cell-based, mouse; settings: IC50 (3 days), CellTiter-Glo; read-out: Ba/F3-FLT3-ITD-D835Y Relative IC50
T2 construct: Ba/F3-FLT3-ITD-D835Y Relative IC50
T2 sequence (P36888 1-993 D835Y): T1 sequence (P36888 1-993) with D835Y
Experimental: as §1, §2

| Compound | GI50 [1] [nM] | GI50 [2] [nM] |
| --- | --- | --- |
| CCc1nc(C(N)=O)c(Nc2cccc([C@@H](C)CNC(=O)CN(C)C(=O)/C=C/CN3CCC3)c2)nc1N(C)CC [Compound 518, (R,E)-3-((3-(1-(2-(4-(azetidin-1-yl)-N-methylbut-2-enamido)acetamido)propan-2-yl)phenyl)amino)-6-ethyl-5-(ethyl(methyl)amino)pyrazine-2-carboxamide] | 1 to 10 | 10 to 100 |
| CCOc1nc(Nc2cccc(CCNC(=O)CN(C)C(=O)/C=C/CN3CCC3)c2)c(C(N)=O)nc1CC [Compound 602, (E)-3-((3-(2-(2-(4-(azetidin-1-yl)-N-methylbut-2-enamido)acetamido)ethyl)phenyl)amino)-5-ethoxy-6-ethylpyrazine-2-carboxamide] | 1 to 10 | 10 to 100 |
| CCc1nc(C(N)=O)c(Nc2cccc(CCNC(=O)CN(C)C(=O)/C=C/CN3CCC3)c2)nc1OC(C)C [Compound 603, (E)-3-((3-(2-(2-(4-(azetidin-1-yl)-N-methylbut-2-enamido)acetamido)ethyl)phenyl)amino)-6-ethyl-5-isopropoxypyrazine-2-carboxamide] | 1 to 10 | 10 to 100 |
| CCc1nc(C(N)=O)c(Nc2ccnc(CCNC(=O)[C@H](C)N(C)C(=O)/C=C/CN(C)C)c2)nc1N(C)C(C)C [Compound 605, (S, E)-3-((2-(2-(2-(4-(dimethylamino)-N-methylbut-2-enamido)propanamido)ethyl)pyridin-4-yl)amino)-6-ethyl-5-(isopropyl (methyl)amino) pyrazine-2-carboxamide] | 1 to 10 | 10 to 100 |
